Assay results published in US9745305B2, “Modulators of methyl modifying enzymes, compositions and uses thereof” (Constellation Pharmaceuticals, Inc., priority 2013, dated 2017).

How the values were obtained:
Y641N EZH2 = Y641N EZH2 (Homo sapiens, UniProt Q15910, Y641N); test: Assay for Y641N EZH2 (as the EZH2 assay, H3K27Me2 oligonucleosomes as substrate); assay type: biochemical; details: Y641N EZH2 mutant, reconstituted H3K27Me2 oligonucleosomes as substrate
Method: (§1) EZH2 Assay: Assays were carried out by mixing rPRC2 together with biotinylated oligonucleosome substrates in the presence of the radio-labeled enzyme co-factor, S-adenosyl-L-methionine (^3H SAM) (Perkin Elmer) and monitoring the enzymatically mediated transfer of tritiated methyl groups from ^3H SAM to histone lysine residues. The amount of resulting tritiated methyl histone product was measured by first capturing the biotinylated oligonucleosomes in streptavidin (SAV) coated FlashPlates (Perkin Elmer), followed by a wash step to remove unreacted ^3H SAM, and then counting on a TopCount NXT 384 well plate scintillation counter (Perkin Elmer). The final assay conditions for EZH2 were as follows: 50 mM Tris Buffer pH 8.5, 1 mM DTT, 69 μM Brij-35 detergent, 5.0 mM MgCl2, 0.1 mg/mL BSA, 0.2 μM ^3H SAM, 0.2 μM biotinylated oligonucleosomes, 3.6 μM H3K27me3 peptide and 2 nM EZH2.
(§2) Compound IC50 measurements were obtained as follows: Compounds were first dissolved in 100% DMSO as 10 mM stock solutions. Ten point dose response curves were generated by dispensing varying amounts of the 10 mM compound solution in 10 wells of the 384 well plate (Echo; Labcyte), pure DMSO was then used to backfill the wells to insure all wells have the same amount of DMSO. A 12.5 μL volume of the HMT enzyme, H3K27me3 peptide and oligonucleosome substrate in assay buffer was added to each well of the assay plate using a Multidrop Combi (ThermoFisher). Compounds were pre-incubated with the enzyme for 20 min, followed by initiation of the methyltransferase reaction by addition of 12.5 μL of ^3H SAM in assay buffer (final volume=25 μL). The final concentrations of compounds ranged from a top default concentration of 80 μM down to 0.16 μM in ten 2-fold dilution steps. Reactions were carried out for 60 minutes and quenched with 20 μL per well of 1.96 mM SAH, 50 mM Tris pH 8.5, 200 mM EDTA. Stopped reactions were transferred to SAV coated Flashplates (Perkin Elmer), incubated for 120 min, washed with a plate washer, and then read on the TopCount NXT (1.0 min/well) to measure the amount of methyl histone product formed during the reaction. The amount of methyl histone product was compared with the amount of product formed in the 0% and 100% inhibition control wells allowing the calculation of % Inhibition in the presence of the individual compounds at various concentrations. IC50's were computed using a 4 parameter fit non-linear curve fitting software package (XLFIT, part of the database package, ActivityBase (IDBS)) where the four parameters were IC50, Hill slope, pre-transitional baseline (0% INH), and post-transitional baseline (100% INH); with the latter two parameters being fixed to zero and 100%, respectively, by default.
Assay for Y641N EZH2 was performed as above using reconstituted H3K27Me2 oligonucleosomes as substrate.

EZH2 = EZH2 (Homo sapiens, UniProt Q15910); test: EZH2 Assay (3H SAM methyl transfer, rPRC2, FlashPlate); assay type: biochemical; details: rPRC2, biotinylated oligonucleosomes, 0.2 μM 3H SAM, 2 nM EZH2
Method: as §1, §2

[1] = tested on: H3K27me3 mark in Hela cells expressing wild type EZH2; test: H3K27me3 Alpha Hela Assay (AlphaLISA); assay type: cell-based; details: Homo sapiens, 72 hrs, read-out: H3K27me3_Alpha_HeLa (EC50)
Method: H3K27me3 Alpha Hela Assay (AlphaLISA). Ten different doses of each test compound (in a series of 3-fold dilutions) were plated in duplicate 384-well tissue culture treated plates (Catalog #781080; Greiner Bio One; Monroe, N.C.). Hela cells grown in culture were trypsinized and counted using a Countess® cell counter (Catalog # C10281; Life Technologies, Grand Island, N.Y.). Cell were diluted to 67,000 cells per mL in 10% DMEM (Catalog #10569-010 Life Technologies, Grand Island, N.Y.) and 15 μL (1,000 cells) were plated into each well using the Biotek MicroFlo™ Select Dispenser (BioTek Instruments, Inc. Vermont, USA),) of the 384-well plate. Plates were incubated at 37° C./5% CO2 for 72 hrs. One of the duplicate plates was processed for HeLa assay and the other for viability.
To the plate processed for AlphaLISA was added 5 μL per well Cell-Histone Lysis buffer (1×) (Catalog # AL009F1 Perkin Elmer; Waltham, Mass.) and the plate was incubated at RT for 30 minutes on a plate shaker with low speed (Model#4625-Q Thermo Scientific; Waltham, Mass.). Then, 10 μL per well Histone Extraction buffer (catalog # AL009F2; Perkin Elmer; Waltham, Mass.) was added and the plate further incubated at RT for 20 min on plate shaker with low speed. To each well was then added 10 μL per well of a 5× mix of anti-K27me3 acceptor beads plus Biotinylated anti-Histone H3 (C-ter) Antibody (diluted to 3 nM final) (Catalog #AL118 Perkin Elmer; Waltham, Mass.). Dilution of the acceptor beads and then anti-Histone H3 was with 1× Histone Detection buffer (Catalog # AL009F3 Perkin Elmer; Waltham, Mass.) which was produced diluted from the 10× stock provided. The plate was sealed with an aluminum plate sealer and incubated at 23° C. for 60 min. We then added 10 μL 5× solution of Streptavidin Donor beads (Catalog #6760002 Perkin Elmer; Waltham, Mass.) (20 μg/mL final in 1× Histone Detection Buffer), sealed the plate with Aluminum plate sealer and incubated at 23° C. for 30 min. The plates were then read using an EnVision-Alpha Reader (model #2104 Perkin Elmer; Waltham, Mass.).
Data from both assays was analyzed using Assay Assistant (Constellation Pharmaceuticals In-house product) and Activity Base (IDBS Ltd, Surrey, UK) template. Data files were imported to Assay Assistant and assay conditions were specified. A unique Analysis ID was created and the data files exported to Activity Base. An analysis template was created on Activity Base to measure dose-dependent inhibition of H3K27me3 mark and cell viability respectively. Readout of DMSO wells were used to normalize the data. Resulting curves were fitted using Activity base software Model 205 (IDBS Ltd, Surrey, UK). The data was checked for quality, validated and integrated in excel format using SARview (IDBS Ltd, Surrey, UK).

EZH2, sequence (Q15910 whole entry): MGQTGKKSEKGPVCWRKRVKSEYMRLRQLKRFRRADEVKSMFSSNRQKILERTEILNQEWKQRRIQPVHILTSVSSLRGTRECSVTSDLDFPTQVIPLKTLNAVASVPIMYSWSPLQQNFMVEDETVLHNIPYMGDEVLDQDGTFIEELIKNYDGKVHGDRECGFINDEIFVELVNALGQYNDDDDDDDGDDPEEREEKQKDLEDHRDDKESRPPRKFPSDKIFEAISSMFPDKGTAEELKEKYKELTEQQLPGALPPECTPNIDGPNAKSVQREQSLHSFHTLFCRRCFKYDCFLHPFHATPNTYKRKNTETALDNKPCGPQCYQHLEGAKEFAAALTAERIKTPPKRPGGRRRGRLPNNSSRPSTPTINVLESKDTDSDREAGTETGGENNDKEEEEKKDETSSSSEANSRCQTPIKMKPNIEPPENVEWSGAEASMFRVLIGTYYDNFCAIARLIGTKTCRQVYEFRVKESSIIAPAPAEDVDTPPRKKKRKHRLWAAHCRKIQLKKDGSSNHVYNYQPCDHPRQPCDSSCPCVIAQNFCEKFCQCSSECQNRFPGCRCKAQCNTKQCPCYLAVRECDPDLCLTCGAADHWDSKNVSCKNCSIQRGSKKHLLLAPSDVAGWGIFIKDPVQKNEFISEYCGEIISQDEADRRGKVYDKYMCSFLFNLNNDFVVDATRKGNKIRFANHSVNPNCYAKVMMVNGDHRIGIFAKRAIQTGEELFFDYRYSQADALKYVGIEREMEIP
EZH2, sequence (O75530 whole entry partner): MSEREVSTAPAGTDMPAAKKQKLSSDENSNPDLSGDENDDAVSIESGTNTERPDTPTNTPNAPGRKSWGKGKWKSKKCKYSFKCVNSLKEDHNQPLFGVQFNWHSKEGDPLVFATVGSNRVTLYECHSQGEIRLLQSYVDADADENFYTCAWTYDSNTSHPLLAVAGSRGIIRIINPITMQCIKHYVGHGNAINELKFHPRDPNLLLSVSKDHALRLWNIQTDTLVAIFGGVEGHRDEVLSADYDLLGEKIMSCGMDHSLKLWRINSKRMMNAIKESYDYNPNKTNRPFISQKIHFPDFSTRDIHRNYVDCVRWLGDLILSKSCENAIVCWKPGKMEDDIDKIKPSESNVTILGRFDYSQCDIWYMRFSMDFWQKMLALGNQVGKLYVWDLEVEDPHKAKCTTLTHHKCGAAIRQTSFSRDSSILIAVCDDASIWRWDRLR
EZH2, sequence (Q15022 whole entry partner): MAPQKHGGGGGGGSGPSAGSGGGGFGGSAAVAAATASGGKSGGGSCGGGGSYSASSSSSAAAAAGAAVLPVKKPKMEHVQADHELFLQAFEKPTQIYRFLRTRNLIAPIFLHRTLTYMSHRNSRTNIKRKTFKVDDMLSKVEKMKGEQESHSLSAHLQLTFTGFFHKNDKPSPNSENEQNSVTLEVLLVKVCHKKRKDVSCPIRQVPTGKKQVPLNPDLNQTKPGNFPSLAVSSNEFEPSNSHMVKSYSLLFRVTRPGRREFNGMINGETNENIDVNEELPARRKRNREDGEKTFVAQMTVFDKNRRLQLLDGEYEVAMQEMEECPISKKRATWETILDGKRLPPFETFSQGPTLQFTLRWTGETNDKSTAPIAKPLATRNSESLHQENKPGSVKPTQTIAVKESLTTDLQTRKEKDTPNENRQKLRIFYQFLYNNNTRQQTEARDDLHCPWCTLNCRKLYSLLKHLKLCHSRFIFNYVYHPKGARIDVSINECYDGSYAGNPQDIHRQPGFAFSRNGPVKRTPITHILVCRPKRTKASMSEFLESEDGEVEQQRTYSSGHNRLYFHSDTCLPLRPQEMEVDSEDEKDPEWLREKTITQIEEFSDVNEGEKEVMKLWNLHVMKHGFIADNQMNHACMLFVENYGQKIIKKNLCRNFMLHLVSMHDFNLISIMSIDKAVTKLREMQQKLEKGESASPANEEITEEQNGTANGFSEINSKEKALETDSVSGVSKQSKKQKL
Y641N EZH2, sequence (Q15910 whole entry Y641N): as the sequence (Q15910 whole entry) above, with Y641N counted along it
Y641N EZH2, sequence (O75530 whole entry partner): as the sequence (O75530 whole entry partner) above
Y641N EZH2, sequence (Q15022 whole entry partner): as the sequence (Q15022 whole entry partner) above

SMILES | IC50 (Y641N EZH2) [nM] | IC50 (EZH2) [nM] | EC50 [1] [nM] | Y641N EZH2 IC50 (Y641N EZH2) | EZH2 IC50 (EZH2)
COc1cc(C)[nH]c(=O)c1CNC(=O)c1c(C)c(-c2ccnn2C)n2ncccc12 [Compound 109, N-((4-methoxy-6-methyl-2-oxo-1,2-dihydropyridin-3-yl)methyl)-6-methyl-7-(1-methyl-1H-pyrazol-5-yl)pyrrolo[1,2-b]pyridazine-5-carboxamide] | 100 to 1000 | 100 to 1000 | – | – | –
COc1cc(C)[nH]c(=O)c1CNC(=O)c1c(Cl)c(C(C)C2CCOCC2)n2ncccc12 (centres unmarked) [Compound 132, 6-chloro-N-((4-methoxy-6-methyl-2-oxo-1,2-dihydropyridin-3-yl)methyl)-7-(1-(tetrahydro-2H-pyran-4-yl)ethyl)pyrrolo[1,2-b]pyridazine-5-carboxamide] | – | < 100 | < 400 | – | –
Cc1cc(C)c(CNC(=O)c2c(C)c(C(=O)N3CCN(S(C)(=O)=O)CC3)n3ncccc23)c(=O)[nH]1 [Compound 126, N-((4,6-dimethyl-2-oxo-1,2-dihydropyridin-3-yl)methyl)-6-methyl-7-(4-(methylsulfonyl)piperazine-1-carbonyl)pyrrolo[1,2-b]pyridazine-5-carboxamide] | – | 1000 to 10000 | – | – | –
CCS(=O)(=O)N1CCC(C(C)c2c(C)c(C(=O)NCc3c(OC)cc(C)[nH]c3=O)c3cnccn23)CC1 (racemic) [Compound 119, (±)-6-(1-(1-(ethylsulfonyl)piperidin-4-yl)ethyl)-N-((4-methoxy-6-methyl-2-oxo-1,2-dihydropyridin-3-yl)methyl)-7-methylpyrrolo[1,2-a]pyrazine-8-carboxamide] | < 100 | < 100 | – | – | –
COc1cc(C)[nH]c(=O)c1CNC(=O)c1c(C)c(C(C)N(C)C(C)=O)n2ncccc12 (racemic) [Compound 104, (±)-N-((4-methoxy-6-methyl-2-oxo-1,2-dihydropyridin-3-yl)methyl)-6-methyl-7-(1-(N-methylacetamido)ethyl)pyrrolo[1,2-b]pyridazine-5-carboxamide] | 100 to 1000 | < 100 | – | – | –
Cc1ccc2c(C(=O)NCc3c(C)cc(C)[nH]c3=O)c(C)c(C(C)C3CCN(CC(C)(C)O)CC3)n2n1 (centres unmarked) [Compound 129, N-((4,6-dimethyl-2-oxo-1,2-dihydropyridin-3-yl)methyl)-7-(1-(1-(2-hydroxy-2-methylpropyl)piperidin-4-yl)ethyl)-2,6-dimethylpyrrolo[1,2-b]pyridazine-5-carboxamide] | – | < 100 | 400 to 2000 | – | –
COc1cc(C)[nH]c(=O)c1CNC(=O)c1c(C)c(C(C)=O)n2ncccc12 [Compound 100, 7-acetyl-N-((4-methoxy-6-methyl-2-oxo-1,2-dihydropyridin-3-yl)methyl)-6-methylpyrrolo[1,2-b]pyridazine-5-carboxamide] | > 10000 | 1000 to 10000 | – | – | –
COc1cc(C)[nH]c(=O)c1CNC(=O)c1c(C)c(C(C)C2CCN(CC(F)F)CC2)n2ncccc12 (centres unmarked) [Compound 145, 7-(1-(1-(2,2-difluoroethyl)piperidin-4-yl)ethyl)-N-((4-methoxy-6-methyl-2-oxo-1,2-dihydropyridin-3-yl)methyl)-6-methylpyrrolo[1,2-b]pyridazine-5-carboxamide] | – | < 100 | < 400 | – | –
Cc1cc(C)c(CNC(=O)c2c(C)c(C(=O)N3CCOCC3)n3ncccc23)c(=O)[nH]1 [Compound 125, N-((4,6-dimethyl-2-oxo-1,2-dihydropyridin-3-yl)methyl)-6-methyl-7-(morpholine-4-carbonyl)pyrrolo[1,2-b]pyridazine-5-carboxamide] | – | 100 to 1000 | – | – | –
CCCc1cc(C)[nH]c(=O)c1CNC(=O)c1c(C)c(-c2c(C)noc2C)n2ncccc12 [Compound 123, 7-(3,5-dimethylisoxazol-4-yl)-6-methyl-N-((6-methyl-2-oxo-4-propyl-1,2-dihydropyridin-3-yl)methyl)pyrrolo[1,2-b]pyridazine-5-carboxamide] | – | < 100 | – | *(0.5 μM) | –
COc1cc(C)[nH]c(=O)c1CNC(=O)c1c(C)c(C(C)c2cccn(C)c2=O)n2ncccc12 (racemic) [Compound 111, (±)-N-((4-methoxy-6-methyl-2-oxo-1,2-dihydropyridin-3-yl)methyl)-6-methyl-7-(1-(1-methyl-2-oxo-1,2-dihydropyridin-3-yl)ethyl)pyrrolo[1,2-b]pyridazine-5-carboxamide] | 1000 to 10000 | – | – | – | *(0.25 μM)
COc1cc(C)[nH]c(=O)c1CNC(=O)c1c(C)c(-c2c(C)cnn2C)n2ncccc12 [Compound 120, 7-(1,4-dimethyl-1H-pyrazol-5-yl)-N-((4-methoxy-6-methyl-2-oxo-1,2-dihydropyridin-3-yl)methyl)-6-methylpyrrolo[1,2-b]pyridazine-5-carboxamide] | 100 to 1000 | 100 to 1000 | – | – | –
Cc1cc(C)c(CNC(=O)c2c(C)c(C(C)C3CCN(C)CC3)n3ncccc23)c(=O)[nH]1 (racemic) [Compound 124, (±)-N-((4,6-dimethyl-2-oxo-1,2-dihydropyridin-3-yl)methyl)-6-methyl-7-(1-(1-methylpiperidin-4-yl)ethyl)pyrrolo[1,2-b]pyridazine-5-carboxamide] | 100 to 1000 | < 100 | – | – | –
Cc1cc(C)c(CNC(=O)c2c(C)c(-c3c(C)noc3C)n3ncccc23)c(=O)[nH]1 [Compound 118, N-((4,6-dimethyl-2-oxo-1,2-dihydropyridin-3-yl)methyl)-7-(3,5-dimethylisoxazol-4-yl)-6-methylpyrrolo[1,2-b]pyridazine-5-carboxamide] | < 100 | < 100 | – | – | –
CCS(=O)(=O)N1CCC(C(C)c2c(C)c(C(=O)NCc3c(OC)cc(C)[nH]c3=O)n3ccncc23)CC1 (racemic) [Compound 117, (±)-8-(1-(1-(ethylsulfonyl)piperidin-4-yl)ethyl)-N-((4-methoxy-6-methyl-2-oxo-1,2-dihydropyridin-3-yl)methyl)-7-methylpyrrolo[1,2-a]pyrazine-6-carboxamide] | < 100 | < 100 | – | – | –
CCN(C)C(C)c1c(C)c(C(=O)NCc2c(OC)cc(C)[nH]c2=O)c2cccnn12 (centres unmarked) [Compound 131, 7-(1-(ethyl(methyl)amino)ethyl)-N-((4-methoxy-6-methyl-2-oxo-1,2-dihydropyridin-3-yl)methyl)-6-methylpyrrolo[1,2-b]pyridazine-5-carboxamide] | – | 100 to 1000 | – | – | –
